One test addresses TNFα (Homo sapiens, UniProt P01375). Description: TNF induced HEK-Blue assay (NF-kB-driven secreted alkaline phosphatase reporter). Format: cell-based. The note with it: TNF induced HEK-Blue assay IC50 value, TNFα 0.5 ng/mL, HEK-Blue-CD40L cells, 18 h. A digest of the protocol:
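HEK-Blue-CD40L cells (NF-kB-driven SEAP reporter), 20,000/well, added after 30 min pre-incubation of compound (0.004–25 μM final) with TNFα 0.5 ng/mL final at 37 °C; 18 h incubation. SEAP read with QUANTI-Blue at 620 nm; IC50 from 4-parameter logistic fit, normalized to unstimulated and stimulated DMSO controls.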
Sequence of TNFα (P01375 77-233 limits assumed): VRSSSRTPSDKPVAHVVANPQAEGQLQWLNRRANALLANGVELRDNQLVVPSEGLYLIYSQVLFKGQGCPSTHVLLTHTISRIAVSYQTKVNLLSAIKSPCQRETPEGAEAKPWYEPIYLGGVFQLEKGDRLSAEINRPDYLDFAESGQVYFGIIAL
Turning to `CC(Nc1c(Cl)cnc2cc(F)c(-c3cnc(C(C)(C)O)nc3)cc12)c1ccccc1F` (centres unmarked) [Example 252, 2-(5-(3-chloro-7-fluoro-4-((1-(2-fluorophenyl)ethyl)amino)quinolin-6-yl)pyrimidin-2-yl)propan-2-ol], the IC50 (commonly the concentration needed to halve the response being measured) was below 1000 nM.

The same test, now with this note: TNFα 0.5 ng/mL, HEK-Blue-CD40L cells, 18 h; read-out: TNF induced HEK-Blue assay IC50 value.
`COC(=O)N1CCC[C@H]([C@H](C)Nc2c(Cl)cnc3ccc(-c4cnc(C(C)(C)O)nc4)cc23)C1` [Example 354, (S)-methyl 3-((S)-1-((3-chloro-6-(2-(2-hydroxypropan-2-yl)pyrimidin-5-yl)quinolin-4-yl)amino)ethyl)piperidine-1-carboxylate]: the IC50 was below 1000 nM.

`O=C(O)CN1CCN(c2ncc(-c3ccc4ncc(Cl)c(N[C@@H](c5ccccc5F)C(F)F)c4c3)cn2)CC1` [Example 92, (S)-2-(4-(5-(3-chloro-4-((2,2-difluoro-1-(2-fluorophenyl)ethyl)amino)quinolin-6-yl)pyrimidin-2-yl)piperazin-1-yl)acetic acid]: the IC50 is below 1000 nM.

Regarding `Cc1nc2ccc(-c3cnc(C(C)(C)O)nc3)cc2c(N[C@H](C)c2cc(NC(=O)OC(C)(C)C)ccc2F)c1Cl` [Example 359, tert-Butyl (R)-(3-(1-((3-chloro-6-(2-(2-hydroxypropan-2-yl)pyrimidin-5-yl)-2-methylquinolin-4-yl)amino)ethyl)-4-fluorophenyl)carbamate], the concentration for half-maximal inhibition (IC50) is below 1000 nM.

Turning to `COc1ccc(F)c([C@@H](C)Nc2c(Cl)c(C)nc3ccccc23)c1` [Example 329, (R)-3-chloro-N-(1-(2-fluoro-5-methoxyphenyl)ethyl)-2-methylquinolin-4-amine], the IC50 fell in the range of 1000 to 10000 nM.

Consider `O=C(O)[C@@H]1CN(c2ncc(-c3ccc4ncc(Cl)c(N[C@@H](c5ccccc5F)C(F)F)c4c3)cn2)CCN1` [Example 74, (S)-4-(5-(3-chloro-4-(((S)-2,2-difluoro-1-(2-fluorophenyl)ethyl)amino)quinolin-6-yl)pyrimidin-2-yl)piperazine-2-carboxylic acid], for which the IC50 lay within 1000 to 10000 nM.

`C[C@@H](Nc1c(Cl)cnc2ccc(-c3ccc(N4CCC(CC(=O)O)CC4)nc3)cc12)c1ccccc1F` [Example 82, (R)-2-(1-(5-(3-chloro-4-((1-(2-fluorophenyl)ethyl)amino)quinolin-6-yl)pyridin-2-yl)piperidin-4-yl)acetic acid]: the IC50 was below 1000 nM.

On to `Cc1nc2ccccc2c(N[C@H](C)c2cc(-c3cn[nH]c3)ccc2F)c1Cl` [Example 533, (R)-3-chloro-N-(1-(2-fluoro-5-(1H-pyrazol-4-yl)phenyl)ethyl)-2-methylquinolin-4-amine], for which the IC50 was below 1000 nM.

Regarding `Cc1ccc(C)c(Nc2c(Cl)c(C)nc3ccc(-c4ccc(C(=O)O)nc4)cc23)c1` [Example 9, 5-(3-chloro-4-((2,5-dimethylphenyl)amino)-2-methylquinolin-6-yl)picolinic acid], the half-inhibitory concentration (IC50) lay within 10000 to 25000 nM.

Consider `C[C@@H](Nc1c(Cl)cnc2ccc(-c3cnc(C(C)(C)O)nc3)cc12)c1cc(C(O)CO)ccc1F` (mixture of isomers) [Example 398, 1-(3-((R)-1-((3-chloro-6-(2-(2-hydroxypropan-2-yl)pyrimidin-5-yl)quinolin-4-yl)amino)ethyl)-4-fluorophenyl)ethane-1,2-diol], for which the half-maximal inhibitory concentration (IC50) is below 1000 nM.

Regarding `Cc1nc2ccccc2c(N[C@H](C)c2cc(-c3cccnc3)ccc2F)c1Cl` [Example 531, (R)-3-chloro-N-(1-(2-fluoro-5-(pyridin-3-yl)phenyl)ethyl)-2-methylquinolin-4-amine], the IC50 was below 1000 nM.

Turning to `C[C@@H](Nc1c(Cl)cnc2cc(F)c(-c3ccc(N4CCN(CC(=O)O)CC4)cc3)cc12)c1ccccc1F` [Example 280, (R)-2-(4-(4-(3-chloro-7-fluoro-4-((1-(2-fluorophenyl)ethyl)amino)quinolin-6-yl)phenyl)piperazin-1-yl)acetic acid], the IC50 was below 1000 nM.

In the case of `C[C@@H](Nc1c(Cl)cnc2ccc(-c3ccc(CC(N)C(=O)O)cc3)cc12)c1ccccc1F` (mixture of isomers) [Example 116, 2-amino-3-(4-(3-chloro-4-(((R)-1-(2-fluorophenyl)ethyl)amino)quinolin-6-yl)phenyl)propanoic acid], the IC50 lay in the range of 1000 to 10000 nM.

For `Cc1nc2ccc(-c3cnc(C(C)(C)O)nc3)cc2c(N[C@H](C)c2cc(CC(=O)O)ccc2F)c1Cl` [Example 436, (R)-2-(3-(1-((3-chloro-6-(2-(2-hydroxypropan-2-yl)pyrimidin-5-yl)-2-methylquinolin-4-yl)amino)ethyl)-4-fluorophenyl)acetic acid], the IC50 is below 1000 nM.

On to `Cc1ccc(C)c(Nc2c(F)c(C)nc3ccc(-c4cnc(C(C)(C)O)nc4)cc23)c1` [Example 183, 2-(5-(4-((2,5-dimethylphenyl)amino)-3-fluoro-2-methylquinolin-6-yl)pyrimidin-2-yl)propan-2-ol], for which the IC50 is below 1000 nM.

As for `CC(Nc1c(Cl)cnc2cc(F)c(-c3ccc(C(O)CO)cc3)cc12)c1cc(C(N)=O)ccc1F` (single isomer, unassigned) [Example 601, 3-(1-((3-chloro-6-(4-(1,2-dihydroxyethyl)phenyl)-7-fluoroquinolin-4-yl)amino)ethyl)-4-fluorobenzamide], the IC50 was below 1000 nM.

On to `CC(Nc1c(Cl)cnc2ccc(-c3ccc(C(C)(C)O)cc3)cc12)c1ccon1` (racemic) [Example 174, 2-(4-(3-chloro-4-((1-(isoxazol-3-yl)ethyl)amino)quinolin-6-yl)phenyl)propan-2-ol], for which the IC50 is 10000 to 25000 nM.

Turning to `CC(C)(O)c1ccc(-c2cc3c(NC4(c5ccccc5F)CC4)c(Cl)cnc3cc2F)cc1` [Example 279, 2-(4-(3-chloro-7-fluoro-4-((1-(2-fluorophenyl)cyclopropyl)amino)quinolin-6-yl)phenyl) propan-2-ol], the IC50 lay within 1000 to 10000 nM.

For `CC(Nc1c(Cl)cnc2ccc(-c3cnc(C(C)(C)O)nc3)cc12)c1ncccc1F` (racemic) [Example 171, 2-(5-(3-chloro-4-((1-(3-fluoropyridin-2-yl)ethyl)amino)quinolin-6-yl)pyrimidin-2-yl)propan-2-ol], the IC50 is below 1000 nM.

Regarding `CC(Nc1c(Cl)cnc2ncc(-c3ccc(C(C)(C)O)cc3)cc12)c1ccccc1F` (racemic) [Example 231, 2-(4-(6-chloro-5-((1-(2-fluorophenyl)ethyl)amino)-1,8-naphthyridin-3-yl)phenyl)propan-2-ol], the IC50 fell in the range of 10000 to 25000 nM.

Consider `CC(Nc1c(Cl)cnc2cc(F)c(-c3ccc(C(O)C4CC4)cc3)cc12)c1ccccc1F` (centres unmarked) [Example 262, (4-(3-chloro-7-fluoro-4-((1-(2-fluorophenyl)ethyl)amino)quinolin-6-yl)phenyl)(cyclopropyl)methanol], for which the IC50 was in the range of 1000 to 10000 nM.

With `C[C@@H](Nc1c(Cl)cnc2cc(F)c(-c3cnc(N4CCC(C(=O)O)C4)nc3)cc12)c1ccccc1F` (mixture of isomers) [Example 282, 1-(5-(3-chloro-7-fluoro-4-(((R)-1-(2-fluorophenyl)ethyl)amino)quinolin-6-yl)pyrimidin-2-yl)pyrrolidine-3-carboxylic acid], the IC50 fell in the range of 1000 to 10000 nM.

Consider `C[C@@H](Nc1c(Cl)cnc2ccc(-c3ccc(N4CCNCC4)nc3)cc12)c1ccccc1F` [Example 88, (R)-3-chloro-N-(1-(2-fluorophenyl)ethyl)-6-(6-(piperazin-1-yl)pyridin-3-yl)quinolin-4-amine], for which the IC50 lay within 1000 to 10000 nM.

The record behind these values is patent US10865191B2, “Heterocyclic compounds useful as modulators of TNF alpha” (BRISTOL-MYERS SQUIBB COMPANY, priority 2015, dated 2020).
